From a melting point compilation (Tetko et al.; mined from patent text by program, amines drawn as free bases though some values may be those of a salt) come the findings set out here.

Some results are limits rather than exact numbers.

Regarding `CCCCS(=O)C1CC(=O)N1CC(=O)CCc1ccccc1` (centres undefined), the melting point (commonly the temperature of the solid-liquid transition) was in the range of 145 to 146 °C.
With `O=C(c1nc(-c2ccccc2)nc2ccccc12)N1CCCC(CO)C1` (centres undefined) the figure was 142 °C.
In the case of `COc1ccc2c(c1)cc(Cc1cc3cc(OC)ccc3n1S(=O)(=O)c1ccccc1)n2S(=O)(=O)c1ccccc1` it was 159 to 160 °C; in that of `N#Cc1cc(Br)c(OC(=O)OCOC(=O)COc2ccc(Cl)cc2Cl)c(Br)c1`, 88 to 89 °C; in that of `Cn1c(=O)c2nc(-c3ccc(/C=C/C(=O)O)cc3)[nH]c2n(Cc2cccc(C#N)c2)c1=O`, above 300 °C.
With `N#Cc1ccc2ccc(=O)oc2c1` the figure was 217 to 225 °C; with `CC1(C)C(=O)Nc2cc3[nH]c(-c4ccnnc4)nc3cc21`, above 360 °C.
For `NS(=O)(=O)c1ccc(C2=C(c3cccc(F)c3F)CCC2)cc1`, the melting point was 133 to 134 °C.
In turn, `CC(=NOC(=O)Nc1ccccc1)C(C)N(C(=O)CCl)c1c(C)cccc1C` (centres undefined) had a melting point of 115 to 117 °C.
In the case of `CCCCCCCCCCCCCCCCCCOc1ccc(C(=O)O)o1` it was 117 to 118 °C; in that of `Cc1nn(-c2ccccn2)c2nc3ccccc3c(Cl)c12`, 157 to 159 °C; in that of `C[C@@H](NC(=O)C1CCC1)c1cccc(C(=O)c2ccccc2)c1`, 90 to 93 °C.
With `C[Si](C)(C)CCOCn1c(Br)nc(C#N)c1C#N` the figure was 47 to 52 °C; with `CN(C(CCn1c(=O)[nH]c2ccsc2c1=O)C(=O)O)S(=O)(=O)c1ccc(Oc2ccccc2)cc1` (centres undefined), 218 to 219 °C.
In the case of `COC(=O)c1oc2c(OC)cccc2c1O` it was 114 °C; in that of `CCOC(=O)C(C)c1ccc(CC2CCCCC2=NO)cc1` (centres undefined), 102 to 104 °C; in that of `O=C(NCCCCN1CCC(c2ccc3c(c2OCc2ccccc2)CCCC3)CC1)c1ccc(-c2ccc(C(F)(F)F)cc2)cc1`, 169 to 170 °C.
`Cc1nnc(NCCN2CCC(Nc3nc4ccccc4n3Cc3ccc(F)cc3)CC2)s1` registered a melting point of 191 °C.
With `N#Cc1cc(NC(=O)c2sc3ccccc3c2Cl)ccc1N1CCC(N2CCOCC2)CC1` the figure was 227 to 228 °C; with `CNC(=O)N1C(=O)CC(c2ccc(OC)c(OC3CCCC3)c2)N1C` (centres undefined), 65 to 68 °C; with `CCOC(=O)c1c(C)ccc(Cc2c[nH]cn2)c1O`, 101 to 103 °C.
In the case of `CCOC(=O)CCNc1ncccc1NC(=O)c1ccc(Cl)cc1` it was 124 to 125 °C; in that of `Cc1ccccc1N1CCN(CCn2c(=N)sc3cc(OC(F)(F)F)ccc32)CC1`, 135 °C.
With `O=C(Nc1nc2ccccc2[nH]1)c1ccc(Cl)c(Cl)c1` the figure was 251 to 252 °C.
Compound `CCc1nc2c(C)nc(C)cc2n1-c1ccc(CCOC(=O)NS(=O)(=O)c2ccc(C)cc2)cc1` came in with a melting point of 158 °C.
`O=C(O)CSCCCCc1cccc2cncn12` came in with a melting point of 124 to 126 °C.
With `CC(C)Cn1cnc2c(N)nc3cc(Br)ccc3c21` the figure was 218 to 220 °C; with `CC(C)(OCc1nn(Cc2ccccc2)c2ccccc12)C(=O)Nc1ccccn1`, 121 to 122 °C.
In the case of `O=C(NCC(F)(F)F)C1c2cc(F)ccc2-c2c(CCCCN3CCC(N4C(=O)c5ccccc5C4=O)CC3)cc(F)cc21` (centres undefined) it was 186 to 188 °C; in that of `CCOC(=O)C1=C(N)N=C(OCC)C(C(=O)OCC)C1c1cccc(Cl)c1` (centres undefined), 121 °C.
For `CC(C)(C)c1cc(C=Cc2ccccc2NC(=O)NC2CCCCCC2)cc(C(C)(C)C)c1O`, the melting point lay within 203 to 206 °C.
In the case of `CCOC(=O)c1cn(N)c2c(F)c(F)c(F)cc2c1=O` it was 217 °C; in that of `COC(=O)c1cc(NC(=O)c2ccccc2Cl)c2cc(Cc3ccc(F)cc3)cnc2c1O`, 230 to 232 °C.
In the case of `CC(CCCO)C1CCC2C3CC=C4CC(OC5CCCCO5)CCC4(C)C3CCC12C` (centres undefined) it was 130 to 131 °C.
As to `CN1CCN(C2=Nc3cc(Cl)ccc3Nc3nn(C)nc32)CC1`, the melting point was 200 to 203 °C.
`CCOc1ccc(C#N)c(F)c1F` came in with a melting point of 45 °C.
As to `C=CCN1N=C(c2ccc3c(c2)N(S(C)(=O)=O)CCO3)CCC1=O`, the melting point lay in the range of 153 to 155 °C.
As to `Cc1ccc(CC2CCN(C(=O)C(=O)Nc3ccc4c(c3)CC(=O)N4)CC2)cc1`, the melting point fell in the range of 235 to 237 °C.
Compound `Cc1cc(O)nc2[nH]nc(C)c12` had a melting point of 233 to 235 °C.
In the case of `COc1cc2nc(N3CCN(C(=O)C=Cc4ccoc4)CC3)nc(N)c2cc1OC` it was 252 to 253 °C; in that of `CCCSC(C(N)=O)c1cc(C)cc(C(=O)c2ccc(F)cc2)c1N` (centres undefined), 130 to 132 °C.
The compound `C#Cc1cnn2c(C3CC3)cc(-c3ccc(Cl)cc3)nc12` showed a melting point of 181 to 182 °C.
Turning to `O=C1c2ccccc2C(=O)N1OCC=Cc1ccc(Br)cc1`, the melting point lay within 161 to 162 °C.
With `CCn1cc(C(=O)O)c(=O)c2cc(F)c(N3CCNC(COc4ccccc4)C3)cc21` (centres undefined) the figure was 198 to 200 °C; with `N#CC1=C(c2ccco2)Nc2n[nH]cc2C1c1cccc2nonc12` (centres undefined), 237 °C; with `O=c1c2cc(Cl)ccc2nc2n1CCC2=Cc1ccccc1`, 225 to 227 °C.
With `CC(C)n1nc(-c2cc(NC(=O)c3ccccc3)cnc2-c2ccccc2)ccc1=O` the figure was 207 to 208 °C; with `O=C(On1nnc2ccccc21)c1ccccc1`, 75 to 78.5 °C.
In the case of `CCC(SC(C)=O)C(=O)NC(C)=O` (centres undefined) it was 59 to 60 °C; in that of `CCC1(c2cn(Cc3ccc(Cl)cc3)cn2)Cc2ccccc2C1=O` (centres undefined), 150 to 154 °C; in that of `CC(SC1COC(c2cccc(C(=O)Nc3ccc(C#N)cc3)c2)OC1)C(O)(Cn1cncn1)c1ccc(F)cc1F` (centres undefined), 105 °C.
`c1ccc2c(c1)SCCc1c-2n(CCCN2CCCCC2)c2ccccc12`: the melting point lay in the range of 84 to 87 °C.
Regarding `C#CCOC(=O)C(C#N)=C(SC)SC`, the melting point fell in the range of 77 to 79 °C.
The compound `C=C(CN(C)C)C(O)c1ncc2c(c1O)COC2C1CCCCC1` (centres undefined) yielded a melting point of 180 to 184 °C.
In the case of `COc1cc(OCc2cccnc2)ccc1/C=C/c1cc(/C=C/c2c[nH]c3ccccc23)n[nH]1`, the melting point lay within 129 to 137 °C.
With `CC(=O)Oc1ccccc1C(=O)Nc1ncc(S(C)(=O)=O)s1` the figure was 173 to 175 °C; with `CCCCOC(=O)c1ccc(C#N)cc1`, 54 to 55 °C; with `NC1=CC=C(c2ccccc2)CC1(Cl)C(O)(C1CC1)C1CC1` (centres undefined), 90 to 92 °C.
Turning to `COC(=O)C1(OC)CC(C)C(=O)C=C1O` (centres undefined), the melting point was 117 to 118 °C.
In the case of `CON=C(c1ccccc1OCc1ccc(Cl)cc1Cl)n1ccnc1` it was 122 to 123 °C; in that of `NCCc1c[nH]c2ccc(Cc3ccccc3)cc12`, 150 to 153 °C; in that of `C[C@@H](n1cnc2cc(Cl)ccc2c1=O)[C@](O)(Cn1cncn1)c1ccc(Cl)cc1Cl`, 144 to 146 °C.
Consider `OC(Cc1ccc(F)cc1)(Cn1cncn1)C1(Cl)CC1` (centres undefined), for which the melting point was 111 °C.
In the case of `O=[N+]([O-])c1ccc(N2CCN(CC(O)(Cn3cncn3)c3ccc(Cl)cc3Cl)CC2)cc1` (centres undefined) it was 168 °C.
In the case of `O=[N+]([O-])c1cccc2c1C1OC1CC2` (centres undefined) it was 67 °C.
In turn, `O=C(O)c1cc(Oc2ccc(C(F)(F)F)cc2Cl)ccc1Cl` came in with a melting point of 103 to 104 °C.
In the case of `COc1c(Cl)ccc(C(=O)O)c1SC` it was 98 to 99 °C; in that of `CCOC(CN1C(=O)C2=C(c3ccsc3)N(CC(OCC)OCC)C(=O)C2=C1c1ccsc1)OCC`, 166 to 167 °C; in that of `Cc1cc(Br)cc(C)c1NC(=O)Nc1ccc(-n2nc(C(F)(F)F)cc2C(F)(F)F)cc1`, above 230 °C.
With `c1ccc(OCc2ccc3ccccc3n2)c(OCCCc2nnn[nH]2)c1`, the melting point lay in the range of 137 to 140 °C.
`CC(=O)c1ccc(Cl)c(C)c1F` registered a melting point of 57 °C.
In the case of `COc1ccc2c(c1)C(CCNC(C)=O)=C(Cc1ccccc1)C2` it was 133 to 135 °C; in that of `CCn1cc(C(=O)NC2CC2c2ccccc2)c(=O)c2cnc(N3CCCC3)nc21` (centres undefined), 199 to 201 °C.
With `O=C(O)Cc1c(C(=O)O)c2cc(Oc3cccc(Cl)c3)ccc2n1-c1ccc(OC(F)(F)F)cc1` the figure was 190 to 195 °C; with `Brc1cn2c(Br)cnc2c(N2CCOCC2)n1`, 141 °C.
`COc1ccccc1-n1nc(S(=O)(=O)c2ccc(Cl)cc2)c(C)c(C#N)c1=O`: the melting point is 175 to 178 °C.
In the case of `Oc1csc(Cc2n[nH]c3ccccc23)c1` it was 189 to 190 °C; in that of `COCc1nnc2n1-c1sc(Cl)cc1C(c1ccccc1[N+](=O)[O-])=NC2`, 204 to 205 °C; in that of `CC(Cc1ccccc1)(C(=NC#N)NCc1ccco1)c1ccccn1` (centres undefined), 152 to 154 °C.
Turning to `CCOc1cccc(C(C)CC(=O)Nc2sc3c(c2C#N)CCNC3)c1` (racemic), the melting point was in the range of 178 to 180 °C.
`Cn1c(Cl)c(C=C(C#N)S(C)(=O)=O)c2ccccc21` showed a melting point of 180 °C.
In the case of `Nc1ccc(Br)cc1CC1NC(=O)NC1=O` (centres undefined) it was above 310 °C; in that of `CC(C)(C)c1ccc(C=NOCCCOc2ccc(CC(=O)O)cc2)cc1`, 56.2 to 59.2 °C; in that of `O=Cc1c2ccccc2cc2cc(Cl)ccc12`, 122 to 124 °C.
In the case of `N#Cc1cc([N+](=O)[O-])ccc1N1CCNCC1CCO` (centres undefined) it was 100 to 102 °C.
With `NC(=O)CNC(=O)c1ccnc(-c2cccc3cc(Cc4cccc(C(F)(F)F)c4)sc23)c1` the figure was 176 to 177 °C; with `COc1ccc(F)cc1OCCCl`, 35 to 38 °C; with `COC(=O)c1ccc(Cn2c(=O)c(C)c3sc(C(=O)NCc4ccc(OC)cc4)cn3c2=O)cc1`, 163 to 165 °C.
`O=C(O)c1ccc2c(-c3ccccc3)c([N+](=O)[O-])oc2c1`: the melting point is 244 to 247 °C.
